Laboratory results published in ChEMBL document CHEMBL1151824, “Semisynthesis and biological activity of stemofoline alkaloids” (2009).
In brackets after ≈: the same amount, converted by molar mass.

Experiments:
Pseudomonas aeruginosa = assay: Antimicrobial activity against Pseudomonas aeruginosa ATCC 27853 after 24 hrs by broth dilution technique; assay type: functional
Staphylococcus aureus = assay: Antimicrobial activity against Staphylococcus aureus ATCC 25923 after 24 hrs by broth dilution technique; assay type: functional
Candida albicans = assay: Antimicrobial activity against Candida albicans ATCC 90028 after 24 hrs by broth dilution technique; assay type: functional; settings: ATCC 90028, 24 h
[1] = target: Acetylcholinesterase (Homo sapiens) (UniProt P22303); assay: Inhibition of AChE assessed as white zone of inhibition after 20 mins by TLC bioautography
[2] = Pseudomonas aeruginosa, ATCC 27853, 24 h, read-out: MIC

Acetylcholinesterase (Homo sapiens), sequence (P22303 whole entry): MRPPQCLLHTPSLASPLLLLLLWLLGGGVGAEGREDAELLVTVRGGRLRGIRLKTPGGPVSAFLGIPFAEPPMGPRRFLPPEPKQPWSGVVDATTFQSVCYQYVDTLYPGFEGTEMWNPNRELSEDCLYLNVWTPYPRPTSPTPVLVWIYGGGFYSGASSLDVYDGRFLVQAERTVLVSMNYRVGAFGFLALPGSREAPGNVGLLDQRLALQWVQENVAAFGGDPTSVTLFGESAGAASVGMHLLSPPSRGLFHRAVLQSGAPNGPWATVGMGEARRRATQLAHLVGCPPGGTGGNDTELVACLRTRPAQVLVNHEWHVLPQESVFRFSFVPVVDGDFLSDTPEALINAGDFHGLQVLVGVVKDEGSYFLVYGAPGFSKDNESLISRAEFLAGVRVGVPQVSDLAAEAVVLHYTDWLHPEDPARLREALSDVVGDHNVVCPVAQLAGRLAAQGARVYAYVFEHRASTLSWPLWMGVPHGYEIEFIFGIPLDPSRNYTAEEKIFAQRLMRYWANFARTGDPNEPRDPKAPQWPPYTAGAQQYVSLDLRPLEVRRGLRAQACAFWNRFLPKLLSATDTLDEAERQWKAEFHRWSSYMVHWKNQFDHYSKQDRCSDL

Molecule	MIC (Staphylococcus aureus; ATCC 25923, 24 h) [µg/mL]	MIC (Pseudomonas aeruginosa; [2]) [µg/mL]	MIC (Candida albicans) [µg/mL]	MIC [1]	other results
COC1=C(C)C(=O)O/C1=C1\O[C@@]23O[C@H]4C[C@@H]([C@H]2[C@@H]1C)N1CC[C@H]3[C@@]41/C=C/C(C)O (mixture of isomers; 2) [listing 1 of 2 here]					MIC (Pseudomonas aeruginosa): >=125 ug ml-1
COC1=C(C)C(=O)O/C1=C1\O[C@@]23O[C@H]4C[C@@H]([C@H]2[C@@H]1C)N1CC[C@H]3[C@@]41/C=C/C(C)O (mixture of isomers; 1)	≥ 125	62.5	≥ 125		
COC1=C(C)C(=O)O/C1=C1\O[C@@]23O[C@H]4C[C@@H]([C@H]2[C@@H]1C)N1CC[C@H]3[C@@]41/C=C/C(C)O (mixture of isomers; 2) [listing 2 of 2 here]				2.5 ×10⁻¹ nmol	
COC1=C(C)C(=O)O/C1=C1\O[C@@]23O[C@H]4C[C@@H]([C@H]2[C@@H]1C)N1CC[C@H]3[C@@]41CCC(C)O (mixture of isomers)	≥ 125	≥ 125	≥ 125	2.5 ×10⁻² nmol	
COC1=C(C)C(=O)O/C1=C1\O[C@@]23O[C@H]4C[C@@H]([C@H]2[C@@H]1C)N1CC[C@H]3[C@@]41C (stereo in doubt; 3)				2.9 ×10⁻¹ nmol	
C[C@@H]1[C@H](O)[C@@H](C)/C=C/C=C/C=C/C=C/C=C/C=C/C=C/[C@H](O[C@@H]2O[C@H](C)[C@@H](O)[C@H](N)[C@@H]2O)C[C@@H]2O[C@](O)(C[C@@H](O)C[C@@H](O)[C@H](O)CC[C@@H](O)C[C@@H](O)CC(=O)O[C@H]1C)C[C@H](O)[C@H]2C(=O)O [AMPHOTERICIN B]			0.35 (≈ 0.379 µM)		
COC1=C(C)C(=O)O/C1=C1\O[C@@]23O[C@H]4C[C@@H]([C@H]2[C@@H]1C)N1CC[C@H]3[C@@]41C (stereo in doubt; 15) [METHYLSTEMOFOLINE]	≥ 125	≥ 125	≥ 125		
GENTAMICIN					MIC (Staphylococcus aureus): 1.41 µg/mL; MIC (Pseudomonas aeruginosa): 1.41 µg/mL
CNC(=O)Oc1ccc2c(c1)[C@]1(C)CCN(C)[C@@H]1N2C				3.6 ×10⁻⁴ nmol	
CC/C=C/C12C3CC4C5[C@@H](C)/C(=C6/OC(=O)C(C)=C6OC)O[C@]5(O3)C1CCN42 (stereo partly drawn)		≥ 125		1.3 ×10⁻² nmol	
COC1=C(C)C(=O)O/C1=C1\O[C@@]23O[C@H]4C[C@@H]([C@H]2[C@@H]1C)N1CC[C@H]3[C@@]41CC[C@@H](C)O (mixture of isomers)	≥ 125	62.5	≥ 125	2.5 ×10⁻¹ nmol	
